Values quoted from earlier work, collected in US20170232011A1, “PHARMACEUTICAL COMPOSITION AND METHOD FOR THE TREATMENT OF URINARY TRACT INFECTIONS” (priority 2016, published 2017).

How the values were obtained:
[1] = test system: Staphylococcus saprophyticus
[2] = test system: Coagulase negative staphylococci
[3] = 100 mg oral dose

For Nc1ccc(N=Nc2ccccc2)c(N)n1 [Phenazopyridine, 3-phenyldiazenylpyridine-2,6-diamine], the “oral dose excreted directly into the urine chemically unchanged” value is given as about 65%.
For O=C1CN(N=Cc2ccc([N+](=O)[O-])o2)C(=O)N1 [Nitrofurantoin, 1-[[[5-nitro-2-furanyl]methylene]amino]-2,4-imidazolidinedione], the “activity against E. coli” value (E. coli) is given as “good activity”, the “activity against Staphylococcus saprophyticus” value [1] is given as “good activity” and the “activity against Coagulase negative staphylococci” value [2] is given as “good activity”. For the same molecule, the “activity against Enterococcus faecalis” value (Enterococcus faecalis) was “good activity”, the “activity against Staphylococcus aureus” value (Staphylococcus aureus) was “good activity” and the “activity against Streptococcus agalactiae” value (Streptococcus agalactiae) was “good activity”. The “activity against Citrobacter species” value (Citrobacter species) was “good activity”, the “activity against Klebsiella species” value (Klebsiella species) was “good activity” and the plasma levels ([3]; plasma) was “less than 1 μg/ml”. For the same molecule, the “level in the urine” value ([3]; urine) was 200 µg/mL.
